This note sets out measurements from PMC4818757, “Small molecule inhibitors of the Dishevelled‐CXXC5 interaction are new drug candidates for bone anabolic osteoporosis therapy” (EMBO Molecular Medicine, 2016).

In this test the target is T1, Dvl–CXXC5 interaction (Homo sapiens, UniProt O14640).
T1 construct: plasmid DNA encoding Dvl-1247- 341 (the Dvl PDZ domain); His-tag (TEV-cleavable) (cleaved yes); made in house; host or cells: E. coli BL21 (DE3)
T1 sequence (O14640 247-341 limits assumed): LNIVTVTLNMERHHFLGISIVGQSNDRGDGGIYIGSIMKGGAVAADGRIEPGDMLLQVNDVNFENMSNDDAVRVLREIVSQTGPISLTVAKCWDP
Nature of the test: Dvl–CXXC5 in vitro binding assay (FITC PolyR-DBM competition). The source says:
We tried to search small‐molecule drug candidates activating the Wnt/β‐catenin signaling on the basis of the previous study (Kim et al, 2015). To screen small molecules inhibiting the Dvl–CXXC5 interaction, an in vitro assay system (Fig 1A) was established using purified recombinant Dvl PDZ domain and FITC‐conjugated PolyR‐DBM (Dvl binding motif) (Kim et al, 2015). A chemical with inhibitory activity of Dvl–CXXC5 interaction competes with the FITC‐conjugated peptide for binding to Dvl PDZ domain, which results in a decrease in fluorescence intensity of the well containing the chemical (Fig 1A).
Figure 1 Identification and characterization of small molecules competing Dvl–CXXC5 binding in vitro • A A scheme for in vitro screening method of small molecules competing Dvl–CXXC5 binding. Briefly, purified Dvl PDZ domain was attached to the polystyrene surface of each well of 96‐well plates. Then, PolyR‐DBM (polyarginine‐conjugated Dvl binding motif tagged with FITC) (Kim et al, 2015) was added to each well and allowed to bind to the Dvl PDZ domain; 10 μM small‐molecule compound was added to each well, and the compounds competing with Dvl PZD‐PolyR‐DBM binding were measured by a microplate reader to screen the compounds reducing fluorescence signal. • B Screening results of compounds competing Dvl–CXXC5 interaction. Each 2 μM of the compounds was used for competing as described in Fig 1A. (n = 3) • C, D Primary calvaria cells were treated with 2 μM of each compound for 2 days. The cells were subjected to immunofluorescence analyses to visualize β‐catenin (C; green). The relative numbers of β‐catenin‐positive nuclei were counted (D). (n = 3) • E, F The calvariae from 4‐day‐old mice were cultured ex vivo for 7 days with 2 μM of each compound. Representative calvaria sections were visualized by H&E staining (E). The calvaria thicknesses were measured from the images using Image Pro software (F). (n = 3) Data Information: For B, D, and F, the data are the mean ± s.d. (error bars), and significance was assessed using unpaired Student's t‐test.
For the Dvl–CXXC5 in vitro binding assay, 100 μl of 5 mg/ml purified Dvl PDZ domain was added into each well of a 96‐well Maxibinding Immunoplate (SPL, Seoul, Korea) and incubated overnight in a 4°C chamber. […] After washing with PBS, the fluorescence of each well was measured using a Fluorstar Optima microplate reader (BGM Lab Technologie, Ortenberg, Germany). […]
a The Dvl-CXXC5 in vitro binding assay was performed with 0.1, 1, 3, 10, 30 and 100 µ M of each compound. The IC50 values were calculated using linear regression. b MC3T3E1 cells were cultured in differentiation media with 10 µM of each compound for 4 days and ALP activity levels were quantified to monitor osteogenic differentiation of the cells. […]

Molecules are shown by their SMILES. Like-named read-outs stand apart in the source and are kept apart here.

`CCOC(=O)c1cc2cc(O)ccc2n1CC(=O)NCCN1CCCCC1` [KY‐02327]: the IC50 (0.1, 1, 3, 10, 30 and 100 µM of each compound, linear regression, read-out: Dvl-CXXC5 in vitro binding IC50) stood at 3.1 µM. The “IC50 for inhibition of Dvl–CXXC5 interaction, fold lower than for KY‐02061” value (vs KY‐02061) was found to be 7.7 fold.
Turning to `CCOC(=O)Cn1c(C(=O)OCC)cc2cc(OS(=O)(=O)c3ccc(C)cc3)ccc21` [KY‐02061], the “reduction of fluorescence intensity” value (2 μM compound) is 43.7%. For the same molecule, the IC50 (read-out: 50% inhibition concentration (IC50) of Dvl–CXXC5 interaction) was 24 µM.
